Data on two compounds can be found in ChEMBL document CHEMBL3886997, “Biaryl- or heterocyclic biaryl-substituted cyclohexene derivative compounds as CETP inhibitors” (2016).

For this assay, the target named is T1, Cholesteryl ester transfer protein (Homo sapiens, UniProt P11597).
T1 sequence (P11597 whole entry): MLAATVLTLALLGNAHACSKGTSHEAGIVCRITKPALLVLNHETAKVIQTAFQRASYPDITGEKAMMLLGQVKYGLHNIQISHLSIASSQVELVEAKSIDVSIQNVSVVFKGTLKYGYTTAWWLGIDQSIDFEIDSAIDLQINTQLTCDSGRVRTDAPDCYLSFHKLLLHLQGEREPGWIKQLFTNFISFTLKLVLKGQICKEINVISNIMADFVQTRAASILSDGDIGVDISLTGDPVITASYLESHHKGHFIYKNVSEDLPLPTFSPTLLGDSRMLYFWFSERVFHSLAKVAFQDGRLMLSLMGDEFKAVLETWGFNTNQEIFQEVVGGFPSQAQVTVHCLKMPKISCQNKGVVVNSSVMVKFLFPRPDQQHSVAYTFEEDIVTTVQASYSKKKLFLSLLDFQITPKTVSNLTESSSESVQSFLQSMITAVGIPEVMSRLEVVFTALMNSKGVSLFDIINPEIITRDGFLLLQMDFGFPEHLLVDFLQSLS
The assay can be described thus: Cholesteryl Ester Transfer Assay: As a protein source for cholesteryl ester transfer, plasma from healthy persons was used, and as a cholesteryl ester receptor, LDL from healthy persons was used. Samples were treated with each test compound to final concentrations of 16, 80, 400, 2000 and 10000 nM and analyzed in duplicate. For the cholesteryl ester transfer test, 20 μl of plasma, 50 μl of LDL (0.25 mg/ml) and 50 μl of rHDL-agarose (0.25 mg/ml) were added, and a solution containing a test compound was added, followed by reaction at 37° C. Then, centrifugation was performed at 4° C. for 3 minutes to stop the reaction, and 150 μl of the supernatant was taken and transferred to a 96-well plate for radioactivity measurement, and the radioactivity of the plate was measured with a beta-ray detector. In kind it is cell-free.

For the compound `COc1cc(C(F)(F)F)c(-c2ccc(C(=O)O)cc2F)cc1C1=C(CN2C(=O)O[C@H](c3cc(C(F)(F)F)cc(C(F)(F)F)c3)[C@@H]2C)CC(C)(C)CC1`, the IC50 worked out at 9.1 nM. Turning to `COc1cc(C(F)(F)F)c(-c2ccc(C(=O)O)cc2Cl)cc1C1=C(CN2C(=O)O[C@H](c3cc(C(F)(F)F)cc(C(F)(F)F)c3)[C@@H]2C)CC(C)(C)CC1`, the IC50 amounted to 12.3 nM.

In general, IC50 refers to the concentration needed to halve the response being measured.
